Laboratory results: patent US11453701B2, “Tau aggregation peptide inhibitors” (ADRX, INC., priority 2017, dated 2022)
“And” between values parts separate entries of the source, which are not always exact repeats. Identical values can stand only once. Square brackets hold non-standard residues; d marks the D form. Peptide text beside a SMILES is read from it.

Target: T1, Tau40 P301L protein (Homo sapiens, UniProt P10636, P618L)
T1 construct: His (N); made in house; host or cells: E. coli BL21
Test: Thioflavin T assay of Tau40 amyloid inhibition (Tau40 assay)
Type: biochemical
Conditions: Thioflavin T fluorescence, Tau40 P301L 2.5 μM, 10 μM heparin

T1 sequence (P10636 1-441 isoform P10636-8 P301L): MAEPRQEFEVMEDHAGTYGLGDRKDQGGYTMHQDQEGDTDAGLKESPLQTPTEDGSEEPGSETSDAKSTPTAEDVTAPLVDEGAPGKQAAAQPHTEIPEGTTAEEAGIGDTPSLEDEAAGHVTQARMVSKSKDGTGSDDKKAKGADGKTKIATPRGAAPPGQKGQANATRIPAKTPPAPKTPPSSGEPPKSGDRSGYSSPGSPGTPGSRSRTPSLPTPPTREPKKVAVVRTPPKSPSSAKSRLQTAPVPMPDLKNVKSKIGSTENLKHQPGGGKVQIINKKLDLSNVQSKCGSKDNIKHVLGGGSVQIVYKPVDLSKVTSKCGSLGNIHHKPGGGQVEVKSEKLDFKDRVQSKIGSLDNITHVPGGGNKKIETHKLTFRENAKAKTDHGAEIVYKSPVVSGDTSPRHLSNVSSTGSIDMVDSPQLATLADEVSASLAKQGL

IC50: 1710 nM and 1760 nM
Compound: CC[C@@H](C)[C@@H](NC(=O)[C@@H](Cc1c[nH]cn1)NC(=O)[C@@H](CC(C)C)NC(=O)[C@@H](CCCCN)NC(=O)[C@H](N)Cc1ccccc1)C(=O)N[C@H](CCCNC(=N)N)C(=O)N[C@H](Cc1c[nH]cn1)C(=O)N[C@H](Cc1c[nH]c2ccccc12)C(=O)O [compound 128] (H-[dF][dK][dL][dH][dI][dR][dH][dW]-OH; N-terminus and C-terminus assumed)
